This note sets out measurements from article PMC6433685, “Histone deacetylase inhibitor LMK235 attenuates vascular constriction and aortic remodelling in hypertension” (Journal of Cellular and Molecular Medicine, 2019).

The target in the experiment is T1, HDAC6 (Homo sapiens, UniProt Q9UBN7).
T1 construct: purchased BPS Bioscience 50076
The experiment in a line: HDAC6 fluorogenic enzyme assay kit (BPS Bioscience), cell-free. It is filed as biochemical. The conditions noted are these: 0.001-10 μmol/L inhibitor.

T1 sequence (Q9UBN7 whole entry): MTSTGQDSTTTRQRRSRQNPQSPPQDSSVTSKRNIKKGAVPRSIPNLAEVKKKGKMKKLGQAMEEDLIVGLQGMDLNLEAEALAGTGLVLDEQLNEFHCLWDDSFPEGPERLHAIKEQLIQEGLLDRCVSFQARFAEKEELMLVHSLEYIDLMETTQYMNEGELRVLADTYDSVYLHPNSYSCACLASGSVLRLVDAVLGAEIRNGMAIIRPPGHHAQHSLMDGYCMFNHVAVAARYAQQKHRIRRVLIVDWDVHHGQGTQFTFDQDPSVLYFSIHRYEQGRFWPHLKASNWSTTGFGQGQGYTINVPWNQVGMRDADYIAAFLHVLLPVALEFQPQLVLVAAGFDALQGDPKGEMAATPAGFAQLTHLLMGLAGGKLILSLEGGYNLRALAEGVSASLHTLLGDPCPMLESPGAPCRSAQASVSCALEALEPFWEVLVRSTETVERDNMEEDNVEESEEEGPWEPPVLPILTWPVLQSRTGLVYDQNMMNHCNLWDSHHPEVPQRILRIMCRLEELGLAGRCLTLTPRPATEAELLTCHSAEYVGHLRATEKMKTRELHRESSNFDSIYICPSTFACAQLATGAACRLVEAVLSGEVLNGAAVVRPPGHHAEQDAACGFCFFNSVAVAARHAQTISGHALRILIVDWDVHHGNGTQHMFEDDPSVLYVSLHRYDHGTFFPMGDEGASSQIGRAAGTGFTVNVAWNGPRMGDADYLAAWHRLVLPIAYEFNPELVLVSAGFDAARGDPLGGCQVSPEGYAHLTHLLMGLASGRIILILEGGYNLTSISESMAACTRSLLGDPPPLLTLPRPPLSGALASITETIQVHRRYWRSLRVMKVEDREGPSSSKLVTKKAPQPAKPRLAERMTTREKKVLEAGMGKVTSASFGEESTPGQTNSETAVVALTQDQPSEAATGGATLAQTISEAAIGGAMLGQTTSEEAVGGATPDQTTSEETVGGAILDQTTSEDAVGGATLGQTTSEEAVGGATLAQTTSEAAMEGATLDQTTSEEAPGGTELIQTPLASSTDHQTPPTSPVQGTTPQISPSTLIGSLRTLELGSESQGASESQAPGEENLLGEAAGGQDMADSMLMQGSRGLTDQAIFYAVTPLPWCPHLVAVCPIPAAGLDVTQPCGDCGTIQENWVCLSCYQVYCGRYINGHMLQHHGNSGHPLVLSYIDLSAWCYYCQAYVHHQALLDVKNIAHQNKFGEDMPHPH

As a reminder, the IC50 is the concentration that gives 50% inhibition. High values mean a need for much substance, low ones inhibition by little substance. `Cc1cc(C)cc(C(=O)NOCCCCCC(=O)NO)c1` [LMK235] returned a half-maximal inhibitory concentration (IC50) of 50 nM.
